Measured values: ChEMBL document CHEMBL1201862, “PubChem BioAssay data set” (2004)
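Growth conditions: 96-well plates. Treatment: test compound, 48 hours, 5 concentrations. Analysis: linear interpolation between bracketing concentrations; unreached endpoints set to highest concentration. GI50 = concentration required for 50% inhibition of growth.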 Calls of active or inactive are those of the source. Rule as the data show it: active = GI50 up to about 1.1 µM and inactive = higher.

What was measured:
Assay in all cases: NCI-60 cell line screen, 48 h
[1] = tested on: SK-MEL-2
[2] = tested on: Malme-3M
[3] = tested on: 786-0
[4] = tested on: OVCAR-3
[5] = tested on: U-251
[6] = tested on: T47D
[7] = tested on: NCI-H226
[8] = tested on: NCI-H23
[9] = tested on: OVCAR-4
[10] = tested on: SK-MEL-5
[11] = tested on: CAKI-1
[12] = tested on: MOLT-4
[13] = tested on: SNB-19
[14] = tested on: CCRF-CEM
[15] = tested on: SNB-75
[16] = tested on: RPMI-8226
[17] = tested on: HCT-15
[18] = tested on: DU-145
[19] = tested on: SF-268
[20] = tested on: OVCAR-8
[21] = tested on: UACC-62
[22] = tested on: SF-539
[23] = tested on: SK-MEL-28
[24] = tested on: A498
[25] = tested on: ACHN
[26] = tested on: NCI-H460
[27] = tested on: TK-10
[28] = tested on: IGROV-1
[29] = tested on: SN12C
[30] = tested on: MCF7
[31] = tested on: M14
[32] = tested on: SF-295
[33] = tested on: BT-549
[34] = tested on: K562
[35] = tested on: HOP-62
[36] = tested on: EKVX
[37] = tested on: MDA-MB-231
[38] = tested on: MDA-N
[39] = tested on: HT-29
[40] = tested on: SW-620
[41] = tested on: KM12
[42] = tested on: HOP-92
[43] = tested on: SK-OV-3
[44] = tested on: COLO 205
[45] = tested on: RXF 393
[46] = tested on: NCI/ADR-RES
[47] = tested on: MDA-MB-435
[48] = tested on: UO-31
[49] = tested on: PC-3
[50] = tested on: A549
[51] = tested on: Hs-578T
[52] = tested on: OVCAR-5
[53] = tested on: LOX IMVI
[54] = tested on: HL-60
[55] = tested on: HCT-116
[56] = tested on: NCI-H522
[57] = tested on: UACC-257

Compound: COC(=O)Nc1nc2cc(NC(=O)c3cccs3)ccc2[nH]1
- GI50 [1]: 24.9 µM (inactive)
- GI50 [2]: 23.4 µM (inactive)
- GI50 [3]: 50.9 µM (inactive)
- GI50 [4]: 19.2 µM (inactive)
- GI50 [5]: 34.2 µM (inactive)
- GI50 [6]: 31.3 µM (inactive)
- GI50 [7]: > 100 µM (inactive)
- GI50 [8]: 35.4 µM (inactive)
- GI50 [9]: 74 µM (inactive)
- GI50 [10]: 15.6 µM (inactive)
- GI50 [11]: 44.9 µM (inactive)
- GI50 [12]: 33.7 µM (inactive)
- GI50 [13]: 32.1 µM (inactive)
- GI50 [14]: 31.3 µM (inactive)
- GI50 [15]: 15.7 µM (inactive)
- GI50 [16]: 18.8 µM (inactive)
- GI50 [17]: 23.9 µM
- GI50 [18]: 98.9 µM (inactive)
- GI50 [19]: 75.3 µM (inactive)
- GI50 [20]: 68.7 µM (inactive)
- GI50 [21]: 52.2 µM (inactive)
- GI50 [22]: 21.9 µM (inactive)
- GI50 [23]: 38.5 µM (inactive)
- GI50 [24]: 11.2 µM (inactive)
- GI50 [25]: > 100 µM (inactive)
- GI50 [26]: 40 µM (inactive)
- GI50 [27]: 36.6 µM (inactive)
- GI50 [28]: 0.296 µM (active)
- GI50 [29]: 57.1 µM (inactive)
- GI50 [30]: 32.1 µM (inactive)
- GI50 [31]: 33.7 µM (inactive)
- GI50 [32]: 29.6 µM (inactive)
- GI50 [33]: 55.1 µM (inactive)
- GI50 [34]: 24.3 µM (inactive)
- GI50 [35]: 84.9 µM (inactive)
- GI50 [36]: 40.3 µM (inactive)
- GI50 [37]: 62.1 µM (inactive)
- GI50 [38]: 10.4 µM (inactive)
- GI50 [39]: 33 µM (inactive)
- GI50 [40]: 27.5 µM (inactive)
- GI50 [41]: 21.6 µM (inactive)
- GI50 [42]: 1.53 µM (inactive)
- GI50 [43]: 29 µM (inactive)
- GI50 [44]: 29.6 µM (inactive)
- GI50 [45]: 22.8 µM (inactive)
- GI50 [46]: 17.9 µM (inactive)
- GI50 [47]: 8.57 µM (inactive)
- GI50 [48]: 10.1 µM (inactive)
- GI50 [49]: 30.2 µM (inactive)
- GI50 [50]: 46.9 µM (inactive)
- GI50 [51]: 15.1 µM (inactive)
- GI50 [52]: 61.8 µM (inactive)
- GI50 [53]: 25.9 µM (inactive)
- GI50 [54]: 61.7 µM (inactive)
- GI50 [55]: 34.4 µM (inactive)

Compound: N#CCCN(CCC#N)c1ccc(/C=C2\N=C(c3ccccc3)N(c3ccccc3)C2=O)cc1
- GI50 [1]: > 100 µM (inactive)
- GI50 [2]: > 100 µM (inactive)
- GI50 [3]: 17 µM (inactive)
- GI50 [4]: > 100 µM (inactive)
- GI50 [5]: > 100 µM (inactive)
- GI50 [6]: > 100 µM (inactive)
- GI50 [7]: > 100 µM (inactive)
- GI50 [9]: > 100 µM (inactive)
- GI50 [10]: 4.38 µM (inactive)
- GI50 [12]: 8.59 µM (inactive)
- GI50 [13]: > 100 µM (inactive)
- GI50 [14]: 2.26 µM (inactive)
- GI50 [16]: 8.36 µM (inactive)
- GI50 [17]: 6.25 µM
- GI50 [56]: 18.7 µM (inactive)
- GI50 [18]: > 100 µM (inactive)
- GI50 [20]: > 100 µM (inactive)
- GI50 [21]: > 100 µM (inactive)
- GI50 [22]: 6.11 µM (inactive)
- GI50 [23]: > 100 µM (inactive)
- GI50 [24]: > 100 µM (inactive)
- GI50 [25]: > 100 µM (inactive)
- GI50 [26]: 2.1 µM (inactive)
- GI50 [27]: > 100 µM (inactive)
- GI50 [28]: 25.8 µM (inactive)
- GI50 [29]: > 100 µM (inactive)
- GI50 [30]: > 100 µM (inactive)
- GI50 [31]: > 100 µM (inactive)
- GI50 [32]: > 100 µM (inactive)
- GI50 [33]: 57.1 µM (inactive)
- GI50 [34]: 18.5 µM (inactive)
- GI50 [35]: > 100 µM (inactive)
- GI50 [36]: > 100 µM (inactive)
- GI50 [37]: > 100 µM (inactive)
- GI50 [57]: > 100 µM (inactive)
- GI50 [38]: > 100 µM (inactive)
- GI50 [39]: 8.97 µM (inactive)
- GI50 [40]: > 100 µM (inactive)
- GI50 [41]: > 100 µM (inactive)
- GI50 [42]: 5.19 µM (inactive)
- GI50 [43]: > 100 µM (inactive)
- GI50 [44]: 9.38 µM (inactive)
- GI50 [45]: > 100 µM (inactive)
- GI50 [46]: > 100 µM (inactive)
- GI50 [47]: > 100 µM (inactive)
- GI50 [48]: > 100 µM (inactive)
- GI50 [49]: 17 µM (inactive)
- GI50 [50]: > 100 µM (inactive)
- GI50 [51]: 19.3 µM (inactive)
- GI50 [52]: > 100 µM (inactive)
- GI50 [53]: 7.21 µM (inactive)
- GI50 [54]: 3.07 µM (inactive)
- GI50 [55]: 5.93 µM (inactive)
